Patent US20260224503A1, “METHOD FOR PRODUCING PARTICLE, AND PARTICLE PRODUCED BY THE METHOD AND MEDICAMENT” (Ricoh Company, Ltd., priority 2018, published 2026)

What was measured:
[1] = Dissolution of diclofenac, dissolution test first liquid (pH 1.2); assay type: physicochemical
Protocol: (§1) Specifically, The Japanese Pharmacopoeia dissolution test first solution (1,000 mL of a liquid prepared by dissolving 2.0 g of sodium chloride and 7.0 mL of hydrochloric acid in water, pH 1.2) and dissolution test second solution (50 mL of phosphate buffer solution, pH 6.8 (a liquid prepared by mixing water with a liquid, which had been prepared by dissolving 3.4 g of potassium dihydrogen phosphate and 3.55 g of anhydrous disodium hydrogen phosphate in water to give 1,000 mL, at the mixing ratio of 1:1, pH 6.8)) were used as the test liquids, and the test was performed at 37±0.5 degrees Celsius and at the rotational speed of 50 rpm.

[2] = Dissolution of diclofenac, dissolution test second liquid (pH 6.8); assay type: physicochemical; details: for Diclofenac concentration pH 6.8: 2 mg diclofenac, 37 degrees Celsius, 50 rpm
Protocol: as §1

dissolution of diclofenac, in words [1]: prompt elusion | Diclofenac concentration pH 6.8 ([2]; collection time 0 min): 0 μg/mL | Diclofenac concentration pH 6.8 ([2]; collection time 10 min): 20.92 ± 0.66 μg/mL | Diclofenac concentration pH 6.8 ([2]; collection time 20 min): 19.83 ± 0.74 μg/mL | Diclofenac concentration pH 6.8 ([2]; collection time 30 min): 20.07 ± 0.59 μg/mL | Diclofenac concentration pH 6.8 ([2]; collection time 40 min): 19.97 ± 0.22 μg/mL | Diclofenac concentration pH 6.8 ([2]; collection time 60 min): 20.42 ± 0.46 μg/mL | Diclofenac concentration pH 6.8 ([2]; collection time 90 min): 20.21 ± 0.54 μg/mL | Diclofenac concentration pH 6.8 ([2]; collection time 120 min): 20.45 ± 0.69 μg/mL | dissolution of diclofenac, in words ([2]; dissolution test second liquid (pH 6.8)): sustained release
SMILES: O=C(O)Cc1ccccc1Nc1c(Cl)cccc1Cl [diclofenac bulk powder, diclofenac]
